Measured values taken from ChEMBL document CHEMBL5257066, “The discovery of cyclic γ-AApeptides as the promising ligands targeting EP2” (Bioorg Med Chem Lett, 2023).
Calls of active or inactive are those of the source. The rule behind the calls is not given here.

Legend:
[1] = biological target: T1, Prostaglandin E2 receptor EP2 subtype (Homo sapiens, UniProt P43116); assay: Binding affinity to human recombinant PTGER2 by high throughput fluorescence polarization assay
[2] = biological target: T1, Prostaglandin E2 receptor EP2 subtype; assay: Binding affinity to human recombinant PTGER2 assessed as dissociation constant by high throughput fluorescence polarization assay

T1 sequence (P43116 whole entry): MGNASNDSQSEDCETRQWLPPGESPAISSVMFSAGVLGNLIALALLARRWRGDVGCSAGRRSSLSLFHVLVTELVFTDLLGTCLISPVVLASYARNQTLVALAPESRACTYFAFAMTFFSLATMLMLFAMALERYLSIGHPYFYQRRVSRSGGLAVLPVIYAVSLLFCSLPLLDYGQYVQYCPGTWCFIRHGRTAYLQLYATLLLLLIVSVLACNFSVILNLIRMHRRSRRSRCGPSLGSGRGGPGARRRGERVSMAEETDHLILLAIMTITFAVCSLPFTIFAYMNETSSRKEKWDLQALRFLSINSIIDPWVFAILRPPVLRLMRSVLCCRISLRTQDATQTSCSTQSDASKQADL

Compound | Activity [1] | Kd [2] [nM]
CC(C)C[C@H]1CN(CC(N)=O)C(=O)CCSCc2ccc(cc2)C(=O)N[C@@H](CC(C)C)CN(C(=O)CC2CC2)CC(=O)N[C@@H](CCCCN)CN(C(=O)CCc2ccccc2)CC(=O)N[C@@H](Cc2ccccc2)CN(C(=O)CCC2CCCCC2)CC(=O)N1 | Active | 
CC(C)C[C@H]1CN(CC(N)=O)C(=O)CCSCc2ccc(cc2)C(=O)N[C@@H](CCCCN)CN(C(=O)CCc2ccccc2)CC(=O)N[C@@H](CC(C)C)CN(C(=O)CCC2CCCCC2)CC(=O)N[C@@H](Cc2ccccc2)CN(C(=O)Cc2ccc3ccccc3c2)CC(=O)N1 | Active | 
CC(C)C[C@H]1CN(CC(=O)NCCC(=O)N[C@@H](CCCCNC(=S)Nc2ccc(-c3c4ccc(=O)cc-4oc4cc(O)ccc34)c(C(=O)O)c2)C(N)=O)C(=O)CCSCc2ccc(cc2)C(=O)N[C@@H](CCCCN)CN(C(=O)CCc2ccccc2)CC(=O)N[C@@H](CC(C)C)CN(C(=O)CCC2CCCCC2)CC(=O)N[C@@H](Cc2ccccc2)CN(C(=O)Cc2ccc3ccccc3c2)CC(=O)N1 |  | 16
